Test results taken from patent US10988474B2, “Compounds acting at multiple prostaglandin receptors giving a general anti-inflammatory response” (ALLERGAN, INC., priority 2011, dated 2021).

What was measured:
Format in all cases: cell-based
[1] = molecular target: T1, human prostanoid EP2 receptor (Homo sapiens, UniProt P43116); test: FLIPR Ca2+ signaling PG antagonist assay, EP2 stable cell line; conditions: HEK-293 EBNA cells, human recombinant EP2 with chimeric Gqs; standard agonist PGE2
T1 construct: expressed in transfected cells
Outline: (§1)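 HEK-293 EBNA stable lines; EP2 co-expressed with chimeric Gqs, EP1/IP/TP with no exogenous G protein. Fluo-4AM-loaded cells pretreated 4.5 min at 37 °C with compound (0.1–30 μM; TP 0.067–1 μM), then standard agonist (PGE2, cicaprost, U-46619) 10^−11–10^−5 M (TP 10^−12–10^−6 M); peak fluorescence read 3.5 min, nonlinear regression.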

[2] = molecular target: T2, human prostanoid TP receptor (Homo sapiens, UniProt P21731); test: FLIPR Ca2+ signaling PG antagonist assay, TP stable cell line; conditions: HEK-293 EBNA cells, human recombinant TP, no exogenous G-protein; standard agonist U-46619
T2 construct: expressed in transfected cells
T2 sequence (P21731 1-343): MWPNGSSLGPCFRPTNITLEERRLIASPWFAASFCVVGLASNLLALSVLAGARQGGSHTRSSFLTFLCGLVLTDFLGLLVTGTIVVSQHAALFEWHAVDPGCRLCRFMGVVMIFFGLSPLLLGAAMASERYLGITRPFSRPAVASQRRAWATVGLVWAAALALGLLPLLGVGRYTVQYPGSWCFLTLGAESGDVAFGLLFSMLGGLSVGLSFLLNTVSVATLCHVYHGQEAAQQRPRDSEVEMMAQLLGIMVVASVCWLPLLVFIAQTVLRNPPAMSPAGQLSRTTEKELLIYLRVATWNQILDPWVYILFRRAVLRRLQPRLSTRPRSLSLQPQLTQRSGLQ
Outline: as §1

[3] = molecular target: T3, human prostanoid EP1 receptor (Homo sapiens, UniProt P34995); test: FLIPR Ca2+ signaling PG antagonist assay, EP1 stable cell line; conditions: HEK-293 EBNA cells, human recombinant EP1, no exogenous G-protein; standard agonist PGE2
T3 construct: expressed in transfected cells
T3 sequence (P34995 1-402): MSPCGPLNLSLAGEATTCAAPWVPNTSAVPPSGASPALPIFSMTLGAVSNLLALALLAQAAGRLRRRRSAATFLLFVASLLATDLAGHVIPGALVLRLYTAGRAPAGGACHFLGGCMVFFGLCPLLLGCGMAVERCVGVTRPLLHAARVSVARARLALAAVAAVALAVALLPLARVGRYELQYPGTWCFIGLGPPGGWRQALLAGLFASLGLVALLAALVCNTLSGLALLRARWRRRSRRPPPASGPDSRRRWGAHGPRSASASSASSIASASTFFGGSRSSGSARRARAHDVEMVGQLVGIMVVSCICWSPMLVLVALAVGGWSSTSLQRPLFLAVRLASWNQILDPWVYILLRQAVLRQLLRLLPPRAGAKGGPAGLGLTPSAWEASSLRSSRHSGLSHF
Outline: (§2)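 Stable HEK-293 EBNA lines (DP1 with chimeric Gqs, EP3 with Gqi, EP1 and FP without exogenous G protein) were Fluo-4AM-loaded and pretreated 4.5 min at 37 °C with compound (0.1–30 μM). Agonist (BW 245C for DP1, PGE2 for EP1/EP3, 17-phenyl-PGF2α for FP) was then added at 10^−11–10^−5 M. Peak Ca2+ fluorescence was taken relative to agonist at 10^−6 M.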

[4] = molecular target: T4, human prostanoid FP receptor (Homo sapiens, UniProt P43088); test: FLIPR Ca2+ signaling PG antagonist assay, FP stable cell line; conditions: HEK-293 EBNA cells, human recombinant FP, no exogenous G-protein; standard agonist 17-phenyl-PGF2α
T4 construct: expressed in transfected cells
Outline: as §2

T1 sequence (P43116 whole entry): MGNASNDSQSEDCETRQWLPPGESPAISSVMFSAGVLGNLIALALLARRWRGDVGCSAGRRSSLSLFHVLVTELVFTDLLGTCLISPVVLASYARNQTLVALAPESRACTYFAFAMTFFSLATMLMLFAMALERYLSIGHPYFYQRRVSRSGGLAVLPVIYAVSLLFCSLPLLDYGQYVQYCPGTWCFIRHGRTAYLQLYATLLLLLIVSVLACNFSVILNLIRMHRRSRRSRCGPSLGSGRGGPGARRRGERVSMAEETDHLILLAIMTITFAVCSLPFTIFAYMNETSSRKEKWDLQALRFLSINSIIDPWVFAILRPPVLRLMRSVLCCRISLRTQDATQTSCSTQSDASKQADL
T4 sequence (P43088 whole entry): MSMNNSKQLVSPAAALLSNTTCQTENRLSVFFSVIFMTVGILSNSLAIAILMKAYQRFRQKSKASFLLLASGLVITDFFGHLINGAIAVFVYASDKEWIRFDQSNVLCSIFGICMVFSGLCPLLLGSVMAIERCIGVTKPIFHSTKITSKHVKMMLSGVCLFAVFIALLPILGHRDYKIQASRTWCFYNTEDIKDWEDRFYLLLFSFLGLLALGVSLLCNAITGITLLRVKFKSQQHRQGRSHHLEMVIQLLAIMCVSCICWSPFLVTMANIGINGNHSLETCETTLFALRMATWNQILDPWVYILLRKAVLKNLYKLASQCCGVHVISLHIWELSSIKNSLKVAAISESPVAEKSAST

| Structure (SMILES) | Kb [1] [µM] | Kb [2] [µM] | Kb [3] [µM] | Kb [4] [µM] |
| --- | --- | --- | --- | --- |
| CC(C)COc1ccc(OC(F)(F)F)cc1Cn1ncc2cc(C(=O)O)cnc21 [Example 58, 1-(2-Isobutoxy-5-Trifluoromethoxy-Benzyl)-1H-Pyrazolo[3,4-B]Pyridine-5-Carboxylic Acid] | ≥ 10 | 0.07 | 0.03 | 0.06 |
| CCC(CC)COc1ccc(Cl)cc1Cn1ncc2c(C(=O)O)cccc21 [Example 38, 1-[5-Chloro-2-(2-Ethyl-Butoxy)-Benzyl]-1H-Indazole-4-Carboxylic Acid] | 2.1 | 0.003 | 0.07 | 1.1 |
| Cc1cn(Cc2cc(OC(F)(F)F)ccc2OCC(C)C)c2ccc(C(=O)O)cc12 [Example 75, 1-(2-Isobutoxy-5-Trifluoromethoxy-Benzyl)-3-Methyl-1H-Indole-5-Carboxylic Acid] | 6.4 | 0.3 | 0.02 | 0.33 |
| CC(C)COc1ccc(Br)cc1Cn1ccc2cc(C(=O)O)cnc21 [Example 72, 1-(5-Bromo-2-Isobutoxy-Benzyl)-1H-Pyrrolo[2,3-B]Pyridine-5-Carboxylic Acid] | ≥ 10 | 0.003 | 0.01 | 0.025 |
| Cc1ccc(OCC(C)C)c(Cn2ncc3cc(C(=O)O)ccc32)n1 [Example 50, 1-(3-Isobutoxy-6-Methyl-Pyridin-2-ylmethyl)-1H-Indazole-5-Carboxylic Acid] | ≥ 10 | 5.7 | 0.09 | 4.9 |
| CC(C)COc1ccc(C(F)(F)F)cc1Cn1ncc2cc(C(=O)O)ccc21 [Example 18] | ≥ 10 | 0.004 | 0.04 | 0.02 |
| CC(C)COc1ccc(Cl)cc1Cn1cc2c(C(=O)O)cccc2n1 [Example 37, 2-(5-Chloro-2-Isobutoxy-Benzyl)-2H-Indazole-4-Carboxylic Acid] | ≥ 10 | 0.2 | 0.48 | ≥ 10 |
| O=C(O)c1ccc2c(cnn2Cc2cc(Br)ccc2OCC2CC2)c1 [Example 15, 1-(5-Bromo-2-Cyclopropylmethoxy-Benzyl)-1H-Indazole-5-Carboxylic Acid] | 3.3 | 0.02 | 0.19 | 0.13 |
| CC(C)COc1ccc(OC(F)F)cc1Cn1ncc2cc(C(=O)O)ccc21 [Example 56, 1-(5-Difluoromethoxy-2-Isobutoxy-Benzyl)-1H-Indazole-5-Carboxylic Acid] | ≥ 10 | 0.005 | 0.024 | 0.024 |
| CCC(CC)COc1ccc(Cl)cc1Cn1ccc2cc(C(=O)O)ccc21 [Example 1, 1-[5-Chloro-2-(2-Ethyl-Butoxy)-Benzyl]-1H-Indole-5-Carboxylic Acid] | 8.7 | 0.15 | 0.18 | 0.56 |
| CC(C)COc1ccc(Br)cc1Cn1ccc2nc(C(=O)O)ccc21 [Example 73, 1-(5-Bromo-2-Isobutoxy-Benzyl)-1H-Pyrrolo[3,2-B]Pyridine-5-Carboxylic Acid] | ≥ 10 | 0.008 | 0.08 | 0.43 |
| CC(C)COc1ccc(Br)cc1Cn1cnc2cc(C(=O)O)ccc21 [Example 79, 1-(5-Bromo-2-Isobutoxy-Benzyl)-1H-Benzoimidazole-5-Carboxylic Acid] | ≥ 10 | 0.008 | 0.011 | 0.08 |
| CCc1nn(Cc2cc(Br)ccc2OCC(C)C)c2ccc(C(=O)O)cc12 [Example 64, 1-(5-Bromo-2-Isobutoxy-Benzyl)-3-Ethyl-1H-Indazole-5-Carboxylic Acid] | 3.1 | 0.008 | 0.005 | 0.19 |
| CCC(CC)Oc1ccc(Br)cc1Cn1ncc2cc(C(=O)O)ccc21 [Example 51, 1-[5-Bromo-2-(1-Ethyl-Propoxy)-Benzyl]-1H-Indazole-5-Carboxylic Acid] | ≥ 10 | 0.05 | 0.07 | 0.11 |
| CCC(CC)COc1ccc(Cl)cc1Cn1ncc2ccc(C(=O)O)cc21 [Example 46, 1-[5-Chloro-2-(2-Ethyl-Butoxy)-Benzyl]-1H-Indazole-6-Carboxylic Acid] | ≥ 10 | 0.15 | 7.1 | ≥ 10 |
| CCC(CC)COc1ccc(Br)cc1Cn1nc(C)c2cc(C(=O)O)ccc21 [Example 27, 1-[5-Bromo-2-(2-Ethyl-Butoxy)-Benzyl]-3-Methyl-1H-Indazole-5-Carboxylic Acid] | 3.64 | 0.02 | 0.11 | 0.2 |
| Cc1nn(Cc2cc(OC(F)(F)F)ccc2OCC(C)C)c2ccc(C(=O)O)cc12 [Example 22, 1-(2-Isobutoxy-5-Trifluoromethoxy-Benzyl)-3-Methyl-1H-Indazole-5-Carboxylic Acid] | ≥ 10 | 0.005 | 0.016 | 0.14 |
| CCC(CC)COc1ccc(Cl)cc1Cn1nc(C)c2cc(C(=O)O)ccc21 [Example 23, 1-[5-Chloro-2-(2-Ethyl-Butoxy)-Benzyl]-3-Methyl-1H-Indazole-5-Carboxylic Acid] | 7.1 | 0.001 | 0.03 | 0.17 |
| CCC(CC)COc1ccc(Cl)cc1Cn1ncc2cc(C(=O)O)ncc21 [Example 63, 1-[5-Chloro-2-(2-Ethyl-Butoxy)-Benzyl]-1H-Pyrazolo[3,4-C]Pyridine-5-Carboxylic Acid] | ≥ 10 | 0.18 | 1.2 | 2.4 |
